# Entries after “also recorded” stand apart in the source; their conditions may differ.
# Experiments:
# Assay type in all cases: cell-based
# rat liver spheroids [1] = assay: Total protein content of rat liver spheroids after GalN exposure (Bradford); settings: 24 hr exposure, vs control
# Method: (§1) Liver spheroids were prepared from the liver of male Wistar rats by a two-step collagenase perfusion method described by Seglen P. O. ((1976). Preparation of isolated rat liver cells. Methods Cell. Biol. 13, 29-38) and modified by Lazar, A.; Peshwa, M. V., Wu, F. J., Chi, C. M., Cerra, F. B., and Hu, W. S. (1995). Extended liver-specific functions of procirne hepatocyte spheroids entrapped in collagen gel. In Vitro Cell Biol Anim. 31, 340-346). Viability of the isolated liver cells was determined by tyrpan blue dye exclusion i.e. an aliquot of isolated liver cells was mixed with an equal volume of trypan blue dye (1.0% w/v in isotonic saline) and incubated at room temperature for a minimum period of 5 minutes. Only isolated liver cell preparations with viability above 80% were used to prepare liver spheroids. […]
# Spheroids were homogenized in homogenisation buffer containing NaH2PO42H2O, 2 mM; Na2HPO4, 2 mM; EDTA, 0.5 mM; and NaCl, 145 mM. Total protein was assessed according to the method developed by Bradford (1976). […] The protein content was determined by Micro Protein Kit (Sigma, Cat. No. 610-A). […] Absorbance was read on a microplate reader (Multiscan RC, Labsystem) at 595 nm.
# rat liver spheroids [2] = assay: Intoxification of liver spheroids: spheroid damage / functional change observed
# Method: as §1, with “spheroids. The cell suspension was diluted with culture medium (hepatocyte medium supplemented with 10% FCS, […] L-glutamine, 2 ng/ml insulin, 100 U/ml penicillin and 100 μg/ml streptomycin sulfate) to give a cell density of 5×10^5 cells/ml. The diluted cell suspension was dispersed into 6-well plates, 3 ml/well. The plates were incubated at 37° C., in a 5% CO2 incubator on a gyrotatory shaker (New Brunswick) at an initial rotation speed of 85 rpm for the first 24 hr and 77 rpm thereafter.” for “spheroids.”
# rat liver spheroids [3] = assay: Lactate dehydrogenase (LDH) leakage of liver spheroids after GalN exposure
# Method: Liver spheroids were prepared from the liver of male Wistar rats by a two-step collagenase perfusion method described by Seglen P. O. ((1976). Preparation of isolated rat liver cells. Methods Cell. Biol. 13, 29-38) and modified by Lazar, A.; Peshwa, M. V., Wu, F. J., Chi, C. M., Cerra, F. B., and Hu, W. S. (1995). Extended liver-specific functions of procirne hepatocyte spheroids entrapped in collagen gel. In Vitro Cell Biol Anim. 31, 340-346). Viability of the isolated liver cells was determined by tyrpan blue dye exclusion i.e. an aliquot of isolated liver cells was mixed with an equal volume of trypan blue dye (1.0% w/v in isotonic saline) and incubated at room temperature for a minimum period of 5 minutes. Only isolated liver cell preparations with viability above 80% were used to prepare liver spheroids. The cell suspension was diluted with culture medium (hepatocyte medium supplemented with 10% FCS, […] L-glutamine, 2 ng/ml insulin, 100 U/ml penicillin and 100 μg/ml streptomycin sulfate) to give a cell density of 5×10^5 cells/ml. The diluted cell suspension was dispersed into 6-well plates, 3 ml/well. The plates were incubated at 37° C., in a 5% CO2 incubator on a gyrotatory shaker (New Brunswick) at an initial rotation speed of 85 rpm for the first 24 hr and 77 rpm thereafter. The plates were rotated at this speed for the duration of the study (up to 45 days, but typically 2-10 days). 1.5 ml of old medium was replaced with 2.0 ml fresh medium for each well every other day. Media exchange was carried out over the duration of the study (up to 45 days, but typically 2-10 days). […]
# LDH in the media was assayed using the method developed by Korzeniewski and Callewaert (Korzeniwski, C., and Callewaert, D. M. (1983). An enzyme-release assay for natural cytotoxicity. J Immun. Meth. 64, 313-320). […] The resultant absorbance at 490 mn was monitored for 15 min, at 10 sec intervals on a microplate reader (Multiscan RC, Labsystem).
# rat liver spheroids [4] = assay: Albumin synthesis of liver spheroids after GalN exposure (BCG albumin kit, medium); settings: 24 hr exposure
# Method: as §1, with “spheroids. The cell suspension was diluted with culture medium (hepatocyte medium supplemented with 10% FCS, […] L-glutamine, 2 ng/ml insulin, 100 U/ml penicillin and 100 μg/ml streptomycin sulfate) to give a cell density of 5×10^5 cells/ml. The diluted cell suspension was dispersed into 6-well plates, 3 ml/well.” for “spheroids.”
# Albumin concentration in the medium was determined by Albumin Reagent Kit (BCG, Sigma). […] Absorbance was read on a microplate reader (Multiscan RC, Labsystems) at 630 nm.
# rat liver spheroids [5] = assay: Urea synthesis of liver spheroids after GalN exposure (Urea Nitrogen Kit, medium)
# Method: as §1
# Urea concentration in the media was determined using a Urea Nitrogen Kit (Cat. 640-A, Sigma). The method was modified in order to be suitable for a 96-well plate format and assays using a microplate reader. […] Total ammonium nitrogen of each sample was determined by adding 25 μl urease solution to each well followed by 10 μl of diluted medium. […] A blue colour developed and the absorbance was read on a microplate reader (Multiscan RC, Labsystems) at 590 nm. Free non-urea nitrogen was determined by adding 25 μl PBS without urease followed by 10 μl medium. […]
# rat liver spheroids [6] = assay: Glutathione content of liver spheroids after GalN exposure (fluorimetric OPT method); settings: 24 hr exposure
# Method: as §1, with “spheroids. The cell suspension was diluted with culture medium (hepatocyte medium supplemented with 10% FCS, […] L-glutamine, 2 ng/ml insulin, 100 U/ml penicillin and 100 μg/ml streptomycin sulfate) to give a cell density of 5×10^5 cells/ml.” for “spheroids.”
# Glutathione levels in spheroids were determined by the fluorimetric method (Hissin P. J., and Hilf (1976). A fluorimetric method for the determination of oxidised and reduced glutathione in tissues. Anal. Biochem. 74, 214-226). […] Absorbance was read on a fluorimeter at excitation wavelength 350 nm and emission wavelength 420 nm.
# [7] = 0-40 mM GalN, trend over concentration
smiles,measurement,setting,value
"N[C@H]1C(O)O[C@H](CO)[C@H](O)[C@@H]1O (stereo partly drawn) [GalN, D-Galactosamine]",total protein content of spheroids,rat liver spheroids [1]; 20 mM or lower GalN,not affected; also recorded: did not decrease
same,total protein content of spheroids,"rat liver spheroids [1]; 40 mM GalN, p<0.05",significantly decreased
same,functional change of liver spheroids,rat liver spheroids [2]; 20 mM GalN,caused a functional change
same,spheroid damage / cell death,"rat liver spheroids [2]; 40 mM GalN (highest concentration), 24 hr exposure",caused acute cell death
same,LDH leakage,rat liver spheroids [3]; [7],concentration-dependent increase
same,LDH leakage,"rat liver spheroids [3]; 10 mM GalN, 24 hr, p<0.05",significantly increased
same,LDH leakage,"rat liver spheroids [3]; 20 and 40 mM GalN, 4 hours after exposure, vs control, p<0.05",significant increase
same,albumin synthesis,rat liver spheroids [4]; [7],concentration-dependent decrease
same,albumin synthesis,"rat liver spheroids [4]; 40 mM GalN, vs control, p<0.05",decrease was significant
same,urea synthesis,"rat liver spheroids [5]; 0-40 mM GalN, 24 hr after exposure, trend over concentration",concentration-dependent increase
same,synthetic rates of urea,"rat liver spheroids [5]; 10 mM or higher GalN, 24 hr, vs control, p<0.05",significantly higher
same,glutathione content,rat liver spheroids [6]; 20 mM and lower GalN,did not decrease
same,glutathione content,"rat liver spheroids [6]; 40 mM GalN, p<0.05",significantly decreased

# — US20040091460A1, “Preparation of spheroids” (priority 2000, published 2004)
